What was measured:
AGE formation = test: Inhibitory effect on AGE formation (BSA with fructose and glucose, fluorescence Ex 350 nm / Em 450 nm); assay type: biochemical, bovine; conditions: for Inhibitory effect / IC50: 7 days
Experimental: To determine the inhibitory effect of the compound of Chemical Formula 1 according to the present invention on formation of AGE, which are an indicator of diabetic complications and indicator of treatment efficiency assessment, the following experiment was carried out.
Bovine serum albumin (BSA) was used as a protein and the degree of binding to fructose and glucose was used as an indicator. Aminoguanidine, which is known to have very excellent inhibitory effect on AGE, was used as a positive control.
Bovine serum albumin (hereinafter, referred to as BSA; Sigma, U.S.A.) was used as a protein source. BSA was added to 50 mM phosphate buffer (pH 7.4) to be a concentration of 10 mg/mL. A mixed solution of 0.2 M fructose and 0.2 M glucose was used as a sugar source. The mixed solution of fructose and glucose was added to the prepared BSA solution. 2.5, 5 and 10 μg/mL of the compound of Chemical Formula 1 obtained from Example 1 were prepared (All compounds were dissolved in DMSO and 15% tween 80 was added thereto. Total amount of DMSO was 0.2%). The compound was added to the mixed solution of BSA and sugars and the mixture was cultured at 37° C. for 7 days.
At this time, 0.02% sodium azide and anticomycotics were added as an antibacterial agent and antifungal agents. A control was the cultured mixture of BSA and sugars. Blanks for the control and experimental group were those that were prepared but non-cultured. Aminoguanidine was used for a positive control, the indicator for comparing the effectiveness. All cultures were prepared in quadruplicate to avoid error as much as possible.
After 7 days, the amount of AGE produced from each culture was analyzed and the result was shown. AGE has fluorescence, brown color, and a physicochemical property capable of cross-linking and has ligands which cell membrane receptors can recognize. The amount of AGE having those characteristics was measured by a microplate reader (Excitation: 350 nm, Emission: 450 nm) to analyze the inhibition degree of formation (Vinson, J. A. et al., J. Nutr. Biochem., 7: 659-663, 1996), and the inhibition rate of formation was calculated using the following Equation 1.
Aminoguanidine was used for the positive control. Aminoguanidine was dissolved in distilled water and 37, 55.6. and 74 μg/mL of aminoguanidine were cultured for 7 days as described above. After 7 days, the amount of AGE produced from culture was measured by a microplate reader (Excitation: 350 nm, Emission: 450 nm).

retinal angiogenesis = test: Oxygen induced retinopathy (OIR) mouse model: FITC-dextran, isolectin-B4 staining, retina Western blot; assay type: in vivo, mice (C58BL/6)
Experimental: To determine the inhibitory effect of the compound of Chemical Formula 1 of the present invention on retinal angiogenesis, the following experiment was carried out. Experimental animals were mice born after crossbreeding 7-8-week-old C58BL/6. On 7th day after birth, mice (P7) were placed into an oxygen chamber and 75% of the oxygen concentration was maintained in the chamber for five days (P7-P11). 12-hour cyclic illumination was maintained in the animal room. Temperature was maintained at 24° C. Animals were allowed to access freely to feeds and drinking water. At an ambient atmosphere, the drug was intraperitoneally injected each day for five days (P12-P16). On 17th day after birth, 30 mg/kg of Zoletil (Zoletil 50, Virbac) and 10 mg/kg of Rompun (Bayer Korea) were mixed at a ratio of 3:2 and 10-fold diluted in physiological saline and 50 μL was intraperitoneally injected to anesthetize animals. After laparotomy, 100 μL of 50 mg/mL of FITC-dextran (Sigma, St. Louis, Mo., USA) dissolved in PBS was injected to a heart. When the heart stopped, eyes were removed. Retina was separated from one eye and stored at −70° C. The other eye was fixed using 4% paraformaldehyde for 10 min. After separation of retina, thin fixed retina slide was prepared and observed using a fluorescence microscope (BX51, Olympus, Japan). Retina was fixed in 4% paraformaldehyde for 3 hours, and washed with PBS, and then agitated in PBS containing triton X-100 and 1% bovine serum albumin for 3 hours. Retina was washed again and 1 mg/mL of isolectin-B4 (L2140, Sigma) was diluted in PBS to 1:50 and retina was agitated with isolectin-B4 at 4° C. for overnight. After washing the retina with PBS containing 0.05% Tween 20 for 2 hours, streptavidin-TRITC was diluted to 1:500 and allowed to react with retina at 37° C. for 4 hours. Then, retina was washed with PBS for 30 min and observed using a fluorescence microscope (BX51, Olympus, Japan). Retina stored at −70° C. was homogenized with homogenization buffer (pH 7.6). Protein quantification was carried out by Lowry's principle and SDS-PAGE electrophoresis was carried out for each 30 μg. Migrated proteins in a gel were immobilized onto a nitrocellulose membrane and transferred to the membrane at 100 V, 250 mA for 1.5 hours. Antibodies to be quantified were immunoabsorbed to the adsorbed proteins and color was developed using an enhanced-chemiluminescence (ECL) solution. Protein expression was determined by measuring the density with Scion image analysis program.

[1] = test system: diabetic retinopathy-induced retina; test: Diabetic retinopathy-induced (intravitreal BSA-AGE) rat model: FITC-dextran retinal vessels, retina Western blot; assay type: in vivo, Sprague Dawley (SD) white rats
Experimental: To determine the therapeutic effect of the compound of the present invention on retina, to which diabetic retinopathy, one example of diabetic complications, was induced, the following experiment was carried out. Sprague Dawley (SD) white rats (6 weeks) were obtained from Daehan Biolink Co. and acclimated for 7 days to the animal room. SD rats were divided into normal group, diabetic group, experimental group, and control group. The animal room was maintained under the following conditions: temperature 23° C.; humidity 40-60%; and 12 h light-dark cycle. Feeds for experimental animals and drinking water were provided without limitation. All experiments were carried out in accordance with Standard Operation Procedures (SOP) by Institutional Animal Care and Use Committee (IACUC). SD rats were anesthetized by an intraperitoneal injection of 5 mg/mL of Zoletil and 5 mg/mL of Rompun. 20 mg/mL of BSA-AGE alone for normal group and diabetic group and both 20 mg/mL of BSA-AGE and a drug for experimental group and control group were injected via Hamilton syringes and needles to eyes. At this time, the needle was introduced into the sclera, 3 mm away from the corneal limbus, and after confirming that the end of the needle was located in the vitreous cavity, administration was carried out. After 24 hours, eyes were removed. The compound of Chemical Formula 1 obtained from Example 1 was used for the drug. A mixture of the same amount of Zoletil and Rompun was intraperitoneally injected to anesthetize animals. Hearts were obtained by opening abdominal cavity and thoracic cavity. 1 mL of fluorescent isothiocyanate dextran (FITC-dextran, Sigma, St. Louis, Mo., USA) which was prepared by dissolving […] of FITC-dextran in 1 mL of sterile physiological saline was injected into the left ventricle. After 10 minutes, eyes were removed and separated from eyecups. Left eyes were incised in four directions and placed onto a slide glass. After mounting, left eyes were observed by a fluorescent microscope. For right eyes, only retina was separated from the eye and rapidly frozen in liquid nitrogen and stored at −70° C. To prepare BSA-AGE, 30 mM glucose (Sigma, St. Louis, Mo., USA) and 20 mg/mL of BSA (Roche, Germany) were added to sodium phosphate buffer (100 mM, pH 7.4) and cultured at 37° C. for 50 days. After 50 days, BSA-AGE was injected into PD-10 column and the remaining glucose was removed by dialysis and only pure BSA-AGE was obtained. Purified BSA-AGE was aliquoted and stored at −70° C. to use. Retina stored at −70° C. was homogenized with homogenization buffer (pH 7.6). Protein quantification was carried out by Lowry's principle and SDS-PAGE electrophoresis was carried out for each […]. Migrated proteins in a gel were immobilized onto a nitrocellulose membrane and transferred to the membrane at 100 V, 250 mA for 1.5 hours. Antibodies to be quantified were immunoabsorbed to the adsorbed proteins and color was developed using an enhanced-chemiluminescence (ECL) solution. Protein expression was determined by measuring the density with Scion image analysis program.

[2] = 100 mg/kg, intraperitoneal P12-P16
[3] = across doses, intraperitoneal P12-P16
[4] = across doses, vs. diabetic group

Q: `N=C(N)NN` [Aminoguanidine, reference compound] was tested. Which Inhibitory effect (AGE formation; 37 μg/mL) did it give?
A: Its Inhibitory effect is 44.53 ± 2.33%.

Q: What about the Inhibitory effect (AGE formation; 55.5 μg/mL) of the same molecule?
A: The Inhibitory effect was 49.97 ± 0.59%.

Q: What about the Inhibitory effect (AGE formation; 74 μg/mL) of the same molecule?
A: Its Inhibitory effect is 56.37 ± 0.67%.

Q: And the IC50 (AGE formation)?
A: The IC50 was 1060 ± 57.2 µM.

Q: What does the source list for `COc1cc(O)cc(-c2ccc(O)c(O)c2)c1` [Compound of Chemical Formula 1]?
A: angiogenesis (isolectin-B4 staining) (retinal angiogenesis; [2]): significantly inhibited; avascular area (FITC-dextran) (retinal angiogenesis; [2]): significantly reduced; increase in length by vascular tortuosity (retinal angiogenesis; [2]): reduced; Changes in the angiogenic growth factor (retina, Western blot) (retinal angiogenesis; 100 mg/kg, p<0.05 vs. OIR): significant decrease; neovascular tufts (isolectin-B4 staining) (retinal angiogenesis; [3]): ameliorated in a dose-dependent manner; vascular tortuosity (FITC-dextran) (retinal angiogenesis; [3]): ameliorated in a dose-dependent manner; Changes in the angiogenic growth factor (retina, Western blot) (retinal angiogenesis; across doses, vs. OIR group): dose-dependent decrease; Inhibitory effect (AGE formation; 2.5 μg/mL): 4.25 ± 5.38%; Inhibitory effect (AGE formation; 5 μg/mL): 17.16 ± 5.86%; Inhibitory effect (AGE formation; 10 μg/mL): 54.17 ± 6.02%; IC50 (AGE formation): 41 ± 3.78 µM; inhibitory effect on AGE formation relative to aminoguanidine (AGE formation; ratio of IC50 values, greater than control): 26 times; Changes in occludin (retina, Western blot) ([1]; 100 μM, p<0.05 vs. AGE-BSA): significant increase; Changes in the angiogenic growth factor (retina, Western blot) ([1]; 100 μM, p<0.05 vs. AGE-BSA): significant decrease; Changes in occludin (retina, Western blot) ([1]; 150 μM, p<0.05 vs. AGE-BSA): significant increase; Changes in the angiogenic growth factor (retina, Western blot) ([1]; 150 μM, p<0.05 vs. AGE-BSA): significant decrease; Changes in occludin (retina, Western blot) [1, 4]: dose-dependent increase; Changes in the angiogenic growth factor (retina, Western blot) [1, 4]: dose-dependent decrease
